This is an account of results in PubChem BioAssay AID504713 (Southern Research Specialized Biocontainment Screening …, 2011).

This assay has as its system mammalian cell cytotoxicity, viability, CC50. The assay is described as follows: mammalian cell cytotoxicity, cytotoxicity control, set 3 (AID 504713).
Regarding `COc1ccc2nc(NC(=O)COc3ccc(C)cc3)sc2c1`, the cytotoxic concentration (CC50) was 87.4 µM.
The value for `CCOc1ccc2c(c1)c(C(C)=O)c(C)n2-c1ccccc1C` was 90.1 µM; that for `COc1ccc(Cl)cc1C(=O)Nc1nc2ccccc2[nH]1` was 60.5 µM; that for `CCOc1ccc2nc(NC(=O)C3(c4ccccc4)CCCC3)sc2c1` was 87.6 µM.
With `N/C(=N\c1nc2ccccc2o1)NC(=O)c1ccccc1` the figure was 19.3 µM.
With `N/C(=N\c1nc2ccccc2o1)NC(=O)c1ccc(F)cc1` the figure was 57.3 µM.
For `N/C(=N\c1nc2cc(Cl)ccc2o1)NC(=O)c1ccccc1`, the CC50 was 43.2 µM.

One may read the CC50 as the concentration giving 50% cytotoxicity.
